From article PMC6128713 (Saudi Pharmaceutical Journal : SPJ, 2018)
Several values for one entry are separate records, joined by “and”; a condition that tells them apart may be missing. Equal values may be shown once. Read-outs that look alike come from different tables or passages of the source.

Assays:
[1] = test system: glutamate-induced 45Ca2+ uptake into synaptosomes of rat brain cortex; experiment: Effect on glutamate-induced 45Ca2+ uptake into synaptosomes of rat brain cortex; format: biochemical, Wistar rats; details: for Percentage 45Ca2+ of Control (Control – 100%): 200 μM glutamate, 5 min, 37 °C; for overall inhibiting activity on calcium ion uptake, in words: whole concentration range 0.01–100 μM
[2] = format: physicochemical

In the case of COc1ccc2c(c1)c1c(n2CCc2n[nH]c(=S)n2C)CCN(C)C1 [III, 5-[2-(8-Methoxy-2-methyl-1,2,3,4-tetrahydropyrido[4,3-b]indol-5-yl)ethyl]-4-methyl-2,4-dihydro[1,2,4]triazole-3-thione], the “Percentage 45Ca2+ of Control (Control – 100%)” value ([1]; compound 0.01 μM) is reported as 86.7 ± 4.0%, the “Percentage 45Ca2+ of Control (Control – 100%)” value ([1]; compound 0.1 μM) is reported as 57.5 ± 8.3% and the “Percentage 45Ca2+ of Control (Control – 100%)” value ([1]; compound 0.5 μM) is reported as 83.0 ± 7.9%. The “Percentage 45Ca2+ of Control (Control – 100%)” value ([1]; compound 1 μM) was 83.4 ± 12.7%, the “Percentage 45Ca2+ of Control (Control – 100%)” value ([1]; compound 5 μM) was 86.6 ± 4.5% and the “Percentage 45Ca2+ of Control (Control – 100%)” value ([1]; compound 10 μM) was 85.8 ± 15.2%. The “Percentage 45Ca2+ of Control (Control – 100%)” value ([1]; compound 50 μM) was 93.1 ± 12.8%, the “Percentage 45Ca2+ of Control (Control – 100%)” value ([1]; compound 100 μM) was 96.1 ± 13.2% and the “maximal effect on calcium ion uptake (inhibiting ability)” value ([1]; concentration of 0.1 μM) was 42.5%. The “inhibition of glutamate-induced calcium ion uptake” value ([1]; concentration of 1 μM) was ~17%, the “overall inhibiting activity on calcium ion uptake, in words” value [1] was “highest inhibiting activity within a wide concentration range (0.01–10 μM)” and the “mole fraction solubility (x)” value ([2]; 1-octanol, 293.15 K) was 0.71 x · 10^4. The “A, parameter of the correlation equation lnx=A-B/T” value (“A, parameter” for short) ([2]; 1-octanol, 293.15–313.15 K) was 7.10 ± 0.15, the “B, parameter of the correlation equation lnx=A-B/T” value (“B, parameter” below) ([2]; 1-octanol, 293.15–313.15 K) was 4876 ± 47 and the “mole fraction solubility (x)” value ([2]; 1-octanol, 298.15 K) was 0.93 x · 10^4. The “ΔGsol0, standard molar dissolution Gibbs energy” value ([2]; 1-octanol, 298.15 K) was 5.5 kcal/mol, the “ΔHsol0, standard molar dissolution enthalpy” value ([2]; 1-octanol, 298.15 K) was 9.68 kcal/mol and the “ΔSsol0, standard molar dissolution entropy” value ([2]; 1-octanol, 298.15 K) was 58.7 J/mol⋅K. The “mole fraction solubility (x)” value ([2]; 1-octanol, 303.15 K) was 1.22 x · 10^4, the “mole fraction solubility (x)” value ([2]; 1-octanol, 308.15 K) was 1.61 x · 10^4 and the “mole fraction solubility (x)” value ([2]; 1-octanol, 313.15 K) was 2.05 x · 10^4. For the same compound, the “mole fraction solubility (x)” value ([2]; Buffer pH 7.4, 293.15 K) was 5.57 x · 10^6, the “A, parameter” value ([2]; Buffer pH 7.4, 293.15–313.15 K) was −2.82 ± 0.09 and the “B, parameter” value ([2]; Buffer pH 7.4, 293.15–313.15 K) was 2719 ± 29. For the same compound, the “mole fraction solubility (x)” value ([2]; Buffer pH 7.4, 298.15 K) was 6.55 x · 10^6, the “ΔGsol0, standard molar dissolution Gibbs energy” value ([2]; Buffer pH 7.4, 298.15 K) was 7.07 kcal/mol and the “ΔHsol0, standard molar dissolution enthalpy” value ([2]; Buffer pH 7.4, 298.15 K) was 5.4 kcal/mol. For the same compound, the “ΔSsol0, standard molar dissolution entropy” value ([2]; Buffer pH 7.4, 298.15 K) was “–23.4 J/mol⋅K”, the “mole fraction solubility (x)” value ([2]; Buffer pH 7.4, 303.15 K) was 7.53 x · 10^6 and the “mole fraction solubility (x)” value ([2]; Buffer pH 7.4, 308.15 K) was 8.77 x · 10^6. For the same compound, the “mole fraction solubility (x)” value ([2]; Buffer pH 7.4, 313.15 K) was 10.09 x · 10^6, the “mole fraction solubility (x)” value ([2]; Hexane, 293.15 K) was 3.30 x · 10^5 and the “A, parameter” value ([2]; Hexane, 293.15–313.15 K) was −2.93 ± 0.14. The “B, parameter” value ([2]; Hexane, 293.15–313.15 K) was 2165 ± 43, the “mole fraction solubility (x)” value ([2]; Hexane, 298.15 K) was 3.71 x · 10^5 and the “ΔGsol0, standard molar dissolution Gibbs energy” value ([2]; Hexane, 298.15 K) was 6.05 kcal/mol. For the same compound, the “ΔHsol0, standard molar dissolution enthalpy” value ([2]; Hexane, 298.15 K) was 4.3 kcal/mol, the “ΔSsol0, standard molar dissolution entropy” value ([2]; Hexane, 298.15 K) was -24.5 J/mol⋅K and the “mole fraction solubility (x)” value ([2]; Hexane, 303.15 K) was 4.18 x · 10^5. The “mole fraction solubility (x)” value ([2]; Hexane, 308.15 K) was 4.68 x · 10^5 and the “mole fraction solubility (x)” value ([2]; Hexane, 313.15 K) was 5.31 x · 10^5.
With CN1CCc2c(c3cc(Cl)ccc3n2CCc2n[nH]c(=S)n2C)C1 [V, 5-[2-(8-Chloro-2-methyl-1,2,3,4-tetrahydropyrido[4,3-b]indol-5-yl)ethyl]-4-methyl-2,4-dihydro[1,2,4]triazole-3-thione] the “Percentage 45Ca2+ of Control (Control – 100%)” value ([1]; compound 0.01 μM) was 103.5 ± 7.7%, the “Percentage 45Ca2+ of Control (Control – 100%)” value ([1]; compound 0.1 μM) was 95.3 ± 1.0% and the “Percentage 45Ca2+ of Control (Control – 100%)” value ([1]; compound 0.5 μM) was 102.2 ± 6.3%. The “Percentage 45Ca2+ of Control (Control – 100%)” value ([1]; compound 1 μM) was 94.5 ± 4.7%, the “Percentage 45Ca2+ of Control (Control – 100%)” value ([1]; compound 5 μM) was 80.7 ± 10.5% and the “Percentage 45Ca2+ of Control (Control – 100%)” value ([1]; compound 10 μM) was 75.6 ± 10.0%. For the same compound, the “Percentage 45Ca2+ of Control (Control – 100%)” value ([1]; compound 50 μM) was 93.3 ± 11.0%, the “Percentage 45Ca2+ of Control (Control – 100%)” value ([1]; compound 100 μM) was 135.5% and 135.5 ± 9.4% and the “inhibition of glutamate-induced calcium ion uptake, most efficient” value ([1]; concentration of 5–10 μM) was ~20%. The “overall inhibiting activity on calcium ion uptake, in words” value [1] was “weak inhibitors of calcium ion uptake”, the “mole fraction solubility (x)” value ([2]; 1-octanol, 293.15 K) was 1.15 x · 10^4 and the “A, parameter” value ([2]; 1-octanol, 293.15–313.15 K) was 6.03 ± 0.15. The “B, parameter” value ([2]; 1-octanol, 293.15–313.15 K) was 4423 ± 47, the “mole fraction solubility (x)” value ([2]; 1-octanol, 298.15 K) was 1.47 x · 10^4 and the “ΔGsol0, standard molar dissolution Gibbs energy” value ([2]; 1-octanol, 298.15 K) was 5.23 kcal/mol. The “ΔHsol0, standard molar dissolution enthalpy” value ([2]; 1-octanol, 298.15 K) was 8.8 kcal/mol, the “ΔSsol0, standard molar dissolution entropy” value ([2]; 1-octanol, 298.15 K) was 50.0 J/mol⋅K and the “mole fraction solubility (x)” value ([2]; 1-octanol, 303.15 K) was 1.91 x · 10^4. For the same compound, the “mole fraction solubility (x)” value ([2]; 1-octanol, 308.15 K) was 2.42 x · 10^4, the “mole fraction solubility (x)” value ([2]; 1-octanol, 313.15 K) was 3.01 x · 10^4 and the “mole fraction solubility (x)” value ([2]; Buffer pH 7.4, 293.15 K) was 2.66 x · 10^6. For the same compound, the “A, parameter” value ([2]; Buffer pH 7.4, 293.15–313.15 K) was 0.12 ± 0.16, the “B, parameter” value ([2]; Buffer pH 7.4, 293.15–313.15 K) was 3799 ± 50 and the “mole fraction solubility (x)” value ([2]; Buffer pH 7.4, 298.15 K) was 3.25 x · 10^6. The “ΔGsol0, standard molar dissolution Gibbs energy” value ([2]; Buffer pH 7.4, 298.15 K) was 7.34 kcal/mol, the “ΔHsol0, standard molar dissolution enthalpy” value ([2]; Buffer pH 7.4, 298.15 K) was 7.55 kcal/mol and the “ΔSsol0, standard molar dissolution entropy” value ([2]; Buffer pH 7.4, 298.15 K) was 2.9 J/mol⋅K. The “mole fraction solubility (x)” value ([2]; Buffer pH 7.4, 303.15 K) was 4.01 x · 10^6, the “mole fraction solubility (x)” value ([2]; Buffer pH 7.4, 308.15 K) was 4.95 x · 10^6 and the “mole fraction solubility (x)” value ([2]; Buffer pH 7.4, 313.15 K) was 6.07 x · 10^6. The “mole fraction solubility (x)” value ([2]; Hexane, 293.15 K) was 5.42 x · 10^4, the “A, parameter” value ([2]; Hexane, 293.15–313.15 K) was 2.45 ± 0.12 and the “B, parameter” value ([2]; Hexane, 293.15–313.15 K) was 2922 ± 38. The “mole fraction solubility (x)” value ([2]; Hexane, 298.15 K) was 6.39 x · 10^4, the “ΔGsol0, standard molar dissolution Gibbs energy” value ([2]; Hexane, 298.15 K) was 4.35 kcal/mol and the “ΔHsol0, standard molar dissolution enthalpy” value ([2]; Hexane, 298.15 K) was 5.81 kcal/mol. The “ΔSsol0, standard molar dissolution entropy” value ([2]; Hexane, 298.15 K) was 13.1 J/mol⋅K, the “mole fraction solubility (x)” value ([2]; Hexane, 303.15 K) was 7.47 x · 10^4 and the “mole fraction solubility (x)” value ([2]; Hexane, 308.15 K) was 8.87 x · 10^4. For the same compound, the “mole fraction solubility (x)” value ([2]; Hexane, 313.15 K) was 10.22 x · 10^4.
